From patent US20080233558A1, “Inhibitors of viral entry screening method” (priority 2005, published 2008) come the findings set out here.

The test system of data set [1] is MLV(VSV-G Env) pseudotype particles. The format is cell-based.
Data set [2] relates to MLV(VSV-G Env) particles that transduce a gfp-gene. The format is cell-based.
The subject of data set [3] is MLV(VSV-G Env) pseudotype particles. The class given is cell-based. This is another data set of the same source.
For data set [4], the system named is indicator cells (HEK293T expressing tPA-HA). Particulars: increasing inhibitor concentrations up to 1 mM; due to cytotoxic effects.

Turning to `Cc1cn([C@H]2C[C@H](N=[N+]=[N-])[C@@H](CO)O2)c(=O)[nH]c1=O` [AZT], in data set [1], the “fluorescence readout signal with increasing concentrations of the inhibitor” value is listed as “increased signal intensities” and the “readout signal at concentrations higher than the optimal concentration” value was “decreased readout signals”. Also, the “gfp fluorescence signal at the highest inhibitor concentration” value in data set [2] was “lowest fluorescence signal”. Further, the “cell populations after α-HA antibody staining” value in data set [3] is recorded as “just one (fluorescence positive) population”. In addition, the “fluorescence signal of indicator cells in absence of any particles” value in data set [4] was “decreasing fluorescence intensities”.
